Legend:
ACHN = experiment: RCC panel sensitivity (Table 2); type: cell-based; conditions: VHL wild-type
UMRC6 = experiment: RCC panel sensitivity (Table 2); type: cell-based; conditions: UMRC6, VHL mutant
LC3 = experiment: Autophagy markers (vacuoles, LC3 processing); type: cell-based; conditions: RCC4 and RCC4/VHL; 1.25, 2.5 and 5 μM
RCC4 cells = experiment: Lactate production, VHL-deficient cells; type: cell-based; design: dose or concentration left out as unconfirmed; conditions: VHL-deficient cells vs control-treated; STF-31 as printed in FIG. 2 legend
Protocol: HIF is important to adapting to low oxygen conditions through the transcription of many genes, including those involved in glucose metabolism. It was hypothesized that STF-31 might inhibit metabolic pathways, leading to necrotic cell death. To examine whether this compound alters glycolysis, intracellular lactate, which is rapidly converted from the glycolysis end product pyruvate, and extracellular acidification were measured. Baseline levels of glycolysis were lower in wild-type VHL cells compared to VHL-deficient cells (FIGS. 2, A and B), likely a result of the constitutive expression of HIF and subsequent overexpression of glucose transporters and glycolytic enzymes in the latter.
Cell Culture and Reagents. All cells were grown in DMEM+10% FCS. ACHN and ACHN shVHL were a kind gift from George V. Thomas (UCLA). HIF overexpressing clones were described previously (Sutphin et al., Cancer Res, 67:5896-5905 (2007)). […] GLUT1 was detected with anti-GLUT1 antibody from NeoMarkers/LabVision/Fisher. For immunofluorescent studies, GLUT1, GLUT2, and GLUT3 antibodies were purchased from R&D. Pyruvate/lactate levels and hexokinase activity were both measured by fluorometric assay (BioVision and Sigma-Aldrich, respectively). ATP levels were measured by bioluminescence assay (ATP Determination Kit from Molecular Probes/Invitrogen). […]

786-0 = experiment: RCC panel sensitivity (Table 2); type: cell-based; conditions: 786-0, VHL mutant
786/VHL = experiment: RCC panel sensitivity (Table 2); type: cell-based; conditions: VHL wild-type
Abl = target: T1, Abl (Homo sapiens, UniProt P00519); experiment: Kinase Profiler; type: biochemical; conditions: STF-31 10 μM
T1 construct: purchased Millipore (Kinase Profiler service)
Protocol: (§1) Cell Culture and Reagents. All cells were grown in DMEM+10% FCS. ACHN and ACHN shVHL were a kind gift from George V. Thomas (UCLA). HIF overexpressing clones were described previously (Sutphin et al., Cancer Res, 67:5896-5905 (2007)). Transfection of RNA oligos were performed with DnarmaFECT Reagent 1 (Dharmcon), according to manufacturer's directions. ON-TARGETplus SMART pools against HIF-1 R/ARNT were purchased from Dharmacon. Inducible shRNAmir to GLUT1 was purchased from Open Biosystems. GLUT1 was detected with anti-GLUT1 antibody from NeoMarkers/LabVision/Fisher. For immunofluorescent studies, GLUT1, GLUT2, and GLUT3 antibodies were purchased from R&D. Pyruvate/lactate levels and hexokinase activity were both measured by fluorometric assay (BioVision and Sigma-Aldrich, respectively). ATP levels were measured by bioluminescence assay (ATP Determination Kit from Molecular Probes/Invitrogen). In vitro kinase activities were performed by Millipore Kinase Profiler.

ASK1 = target: T2, ASK1 (Homo sapiens, UniProt Q99683); experiment: Kinase Profiler; type: biochemical; conditions: STF-31 10 μM
T2 construct: purchased Millipore (Kinase Profiler service)
Protocol: as §1

MEK1 = target: T3, MEK1 (Homo sapiens, UniProt Q02750); experiment: Kinase Profiler; type: biochemical; conditions: STF-31 10 μM
T3 construct: purchased Millipore Kinase Profiler
Protocol: as §1

PKA = target: T4, PKA (Homo sapiens, UniProt P17612); experiment: Kinase Profiler; type: biochemical; conditions: STF-31 10 μM
T4 construct: purchased Millipore Kinase Profiler
Protocol: as §1

cSRC = target: T5, cSRC (Homo sapiens, UniProt P12931); experiment: Kinase Profiler; type: biochemical; conditions: STF-31 10 μM
T5 construct: purchased Millipore (Kinase Profiler service)
Protocol: as §1

JAK2 = target: T6, JAK2 (Homo sapiens, UniProt O60674); experiment: Kinase Profiler; type: biochemical; conditions: STF-31 10 μM
T6 construct: purchased Millipore Kinase Profiler
Protocol: as §1

Flt3 = target: T7, Flt3 (Homo sapiens, UniProt P36888); experiment: Kinase Profiler; type: biochemical; conditions: STF-31 10 μM
T7 construct: purchased Millipore Kinase Profiler
Protocol: as §1

SAPK2a = target: T8, SAPK2a (Homo sapiens, UniProt Q16539); experiment: Kinase Profiler; type: biochemical; conditions: STF-31 10 μM
T8 construct: purchased Millipore (Kinase Profiler service)
Protocol: as §1

cKit(D816H) = target: T9, cKit(D816H) (Homo sapiens, UniProt P10721, D816H); experiment: Kinase Profiler; type: biochemical; conditions: STF-31 10 μM
T9 construct: purchased Millipore (Kinase Profiler service)
T9 sequence (P10721 26-976 D816H): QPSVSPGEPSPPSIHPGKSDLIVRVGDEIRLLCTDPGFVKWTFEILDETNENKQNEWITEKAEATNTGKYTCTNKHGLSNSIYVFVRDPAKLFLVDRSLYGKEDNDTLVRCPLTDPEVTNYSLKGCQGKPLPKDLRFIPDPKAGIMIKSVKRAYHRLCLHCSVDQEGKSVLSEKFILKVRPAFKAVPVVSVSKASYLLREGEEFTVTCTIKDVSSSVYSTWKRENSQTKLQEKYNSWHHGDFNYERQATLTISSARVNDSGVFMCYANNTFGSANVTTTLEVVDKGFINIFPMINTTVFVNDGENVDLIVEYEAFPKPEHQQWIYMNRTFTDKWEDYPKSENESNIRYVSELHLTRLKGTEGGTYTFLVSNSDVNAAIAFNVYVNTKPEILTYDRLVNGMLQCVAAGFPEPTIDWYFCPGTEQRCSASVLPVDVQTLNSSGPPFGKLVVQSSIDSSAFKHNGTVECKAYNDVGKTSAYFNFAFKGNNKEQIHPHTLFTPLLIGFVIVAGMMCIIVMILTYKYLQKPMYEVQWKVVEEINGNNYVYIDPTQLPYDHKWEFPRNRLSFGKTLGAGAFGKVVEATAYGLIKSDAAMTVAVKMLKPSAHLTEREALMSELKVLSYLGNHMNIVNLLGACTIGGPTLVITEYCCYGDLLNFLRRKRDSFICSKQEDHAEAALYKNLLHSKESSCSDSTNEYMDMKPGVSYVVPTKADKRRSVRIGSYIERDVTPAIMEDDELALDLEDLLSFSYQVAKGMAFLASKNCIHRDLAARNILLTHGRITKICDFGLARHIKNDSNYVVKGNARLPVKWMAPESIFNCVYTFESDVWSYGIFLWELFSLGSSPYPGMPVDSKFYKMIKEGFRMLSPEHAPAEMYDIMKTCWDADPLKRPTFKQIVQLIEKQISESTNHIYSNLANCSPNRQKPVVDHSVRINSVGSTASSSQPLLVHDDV
Protocol: as §1

IKKα = target: T10, IKKα (Homo sapiens, UniProt O15111); experiment: Kinase Profiler; type: biochemical; conditions: STF-31 10 μM
T10 construct: purchased Millipore Kinase Profiler
Protocol: as §1

CaMKI = target: T11, CaMKI (Homo sapiens, UniProt Q14012); experiment: Kinase Profiler; type: biochemical; conditions: STF-31 10 μM
T11 construct: purchased Millipore (Kinase Profiler service)
Protocol: as §1

MKK4 = target: T12, MKK4 (Mus musculus, UniProt P47809); experiment: Kinase Profiler; type: biochemical; conditions: STF-31 10 μM
T12 construct: purchased Millipore Kinase Profiler
T12 sequence (P47809 2-397 limits assumed): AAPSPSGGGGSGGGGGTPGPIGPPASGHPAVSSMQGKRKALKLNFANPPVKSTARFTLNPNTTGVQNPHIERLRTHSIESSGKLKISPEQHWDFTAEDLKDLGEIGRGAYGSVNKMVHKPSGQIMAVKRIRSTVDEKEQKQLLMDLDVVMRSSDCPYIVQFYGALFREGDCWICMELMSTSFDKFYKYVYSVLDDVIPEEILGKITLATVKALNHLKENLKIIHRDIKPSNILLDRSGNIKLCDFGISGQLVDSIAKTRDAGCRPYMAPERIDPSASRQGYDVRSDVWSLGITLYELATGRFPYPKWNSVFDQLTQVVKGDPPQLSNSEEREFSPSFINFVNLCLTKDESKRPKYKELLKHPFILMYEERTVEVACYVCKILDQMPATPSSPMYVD
Protocol: as §1

AMPK = experiment: Kinase Profiler; type: biochemical; conditions: STF-31 10 μM
Protocol: as §1

GSK3α = target: T13, GSK3α (Homo sapiens, UniProt P49840); experiment: Kinase Profiler; type: biochemical; conditions: STF-31 10 μM
T13 construct: purchased Millipore Kinase Profiler
Protocol: as §1

Axl = target: T14, Axl (Homo sapiens, UniProt P30530); experiment: Kinase Profiler; type: biochemical; conditions: STF-31 10 μM
T14 construct: purchased Millipore (Kinase Profiler service)
Protocol: as §1

Aurora-A = target: T15, Aurora-A (Homo sapiens, UniProt O14965); experiment: Kinase Profiler; type: biochemical; conditions: STF-31 10 μM
T15 construct: purchased Millipore (Kinase Profiler service)
T15 sequence (O14965 whole entry): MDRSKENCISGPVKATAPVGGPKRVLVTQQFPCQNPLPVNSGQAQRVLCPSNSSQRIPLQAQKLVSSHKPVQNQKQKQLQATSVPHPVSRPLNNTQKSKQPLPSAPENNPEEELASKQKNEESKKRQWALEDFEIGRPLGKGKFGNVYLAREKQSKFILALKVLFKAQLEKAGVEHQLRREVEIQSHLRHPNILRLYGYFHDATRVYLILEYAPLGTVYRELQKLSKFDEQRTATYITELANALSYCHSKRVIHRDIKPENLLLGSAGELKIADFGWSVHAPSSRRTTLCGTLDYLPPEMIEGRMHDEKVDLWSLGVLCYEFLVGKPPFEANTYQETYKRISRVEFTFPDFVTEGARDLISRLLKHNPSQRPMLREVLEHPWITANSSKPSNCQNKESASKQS
Protocol: as §1

FGFR1 = target: T16, FGFR1 (Homo sapiens, UniProt P11362); experiment: Kinase Profiler; type: biochemical; conditions: STF-31 10 μM
T16 construct: purchased Millipore Kinase Profiler
Protocol: as §1

MAPKAP-K2 = target: T17, MAPKAP-K2 (Homo sapiens, UniProt P49137); experiment: Kinase Profiler; type: biochemical; conditions: STF-31 10 μM
T17 construct: purchased Millipore Kinase Profiler
Protocol: as §1

Plk3 = target: T18, Plk3 (Homo sapiens, UniProt Q9H4B4); experiment: Kinase Profiler; type: biochemical; conditions: STF-31 10 μM
T18 construct: purchased Millipore (Kinase Profiler service)
T18 sequence (Q9H4B4 whole entry, species assumed): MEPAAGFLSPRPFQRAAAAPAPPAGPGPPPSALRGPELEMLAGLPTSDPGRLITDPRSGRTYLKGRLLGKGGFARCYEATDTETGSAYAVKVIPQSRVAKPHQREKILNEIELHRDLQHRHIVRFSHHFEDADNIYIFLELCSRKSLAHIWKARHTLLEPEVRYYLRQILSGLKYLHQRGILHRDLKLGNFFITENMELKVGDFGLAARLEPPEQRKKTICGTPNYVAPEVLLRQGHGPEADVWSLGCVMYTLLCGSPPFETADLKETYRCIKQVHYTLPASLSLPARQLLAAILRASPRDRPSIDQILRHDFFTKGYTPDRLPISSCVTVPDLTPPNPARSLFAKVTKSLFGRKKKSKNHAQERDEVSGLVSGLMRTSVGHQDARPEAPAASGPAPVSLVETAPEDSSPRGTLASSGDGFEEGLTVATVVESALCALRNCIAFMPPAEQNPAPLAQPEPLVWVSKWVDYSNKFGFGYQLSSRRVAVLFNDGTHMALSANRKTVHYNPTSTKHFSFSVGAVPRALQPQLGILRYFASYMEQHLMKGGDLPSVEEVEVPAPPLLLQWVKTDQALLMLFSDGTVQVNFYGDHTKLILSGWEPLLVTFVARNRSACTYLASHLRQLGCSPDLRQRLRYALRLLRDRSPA
Protocol: as §1

EphA1 = target: T19, EphA1 (Homo sapiens, UniProt P21709); experiment: Kinase Profiler; type: biochemical; conditions: STF-31 10 μM
T19 construct: purchased Millipore (Kinase Profiler service)
T19 sequence (P21709 26-976, species assumed): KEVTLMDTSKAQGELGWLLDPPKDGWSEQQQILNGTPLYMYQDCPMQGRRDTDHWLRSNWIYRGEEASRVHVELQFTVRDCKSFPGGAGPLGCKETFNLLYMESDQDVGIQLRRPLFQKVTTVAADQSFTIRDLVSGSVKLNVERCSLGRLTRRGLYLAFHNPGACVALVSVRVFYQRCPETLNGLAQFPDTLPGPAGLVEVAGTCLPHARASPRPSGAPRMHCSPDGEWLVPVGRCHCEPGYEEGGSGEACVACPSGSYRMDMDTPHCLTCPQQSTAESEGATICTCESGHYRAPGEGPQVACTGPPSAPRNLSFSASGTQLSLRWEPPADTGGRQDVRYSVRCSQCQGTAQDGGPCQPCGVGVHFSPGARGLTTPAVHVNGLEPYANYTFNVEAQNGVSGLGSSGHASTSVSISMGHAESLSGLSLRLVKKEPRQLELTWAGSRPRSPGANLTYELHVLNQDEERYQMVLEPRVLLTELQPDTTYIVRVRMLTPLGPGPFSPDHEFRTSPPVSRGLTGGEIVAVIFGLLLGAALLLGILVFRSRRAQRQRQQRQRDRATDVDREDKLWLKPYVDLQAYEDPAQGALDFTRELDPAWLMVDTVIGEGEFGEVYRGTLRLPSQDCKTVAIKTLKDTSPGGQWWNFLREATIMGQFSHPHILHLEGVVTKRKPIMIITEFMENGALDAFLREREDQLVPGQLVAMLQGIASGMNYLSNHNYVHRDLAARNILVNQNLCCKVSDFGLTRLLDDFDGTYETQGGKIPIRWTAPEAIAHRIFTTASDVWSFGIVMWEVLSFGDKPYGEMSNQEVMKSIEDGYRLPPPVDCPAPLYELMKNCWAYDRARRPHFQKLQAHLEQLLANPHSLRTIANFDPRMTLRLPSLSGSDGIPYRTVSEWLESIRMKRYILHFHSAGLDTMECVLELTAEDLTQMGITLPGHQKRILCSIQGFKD
Protocol: as §1

NEK2 = target: T20, NEK2 (Homo sapiens, UniProt P51955); experiment: Kinase Profiler; type: biochemical; conditions: STF-31 10 μM
T20 construct: purchased Millipore Kinase Profiler
Protocol: as §1

IR = target: T21, IR (Homo sapiens, UniProt P06213); experiment: Kinase Profiler; type: biochemical; conditions: STF-31 10 μM
T21 construct: purchased Millipore Kinase Profiler
Protocol: as §1

PKBα = target: T22, PKBα (Homo sapiens, UniProt P31749); experiment: Kinase Profiler; type: biochemical; conditions: STF-31 10 μM
T22 construct: purchased Millipore Kinase Profiler
Protocol: as §1

PKCδ = target: T23, PKCδ (Homo sapiens, UniProt Q05655); experiment: Kinase Profiler; type: biochemical; conditions: STF-31 10 μM
T23 construct: purchased Millipore (Kinase Profiler service)
Protocol: as §1

Rsk1 = target: T24, Rsk1 (Homo sapiens, UniProt Q15418); experiment: Kinase Profiler; type: biochemical; conditions: STF-31 10 μM
T24 construct: purchased Millipore (Kinase Profiler service)
T24 sequence (Q15418 whole entry, species assumed): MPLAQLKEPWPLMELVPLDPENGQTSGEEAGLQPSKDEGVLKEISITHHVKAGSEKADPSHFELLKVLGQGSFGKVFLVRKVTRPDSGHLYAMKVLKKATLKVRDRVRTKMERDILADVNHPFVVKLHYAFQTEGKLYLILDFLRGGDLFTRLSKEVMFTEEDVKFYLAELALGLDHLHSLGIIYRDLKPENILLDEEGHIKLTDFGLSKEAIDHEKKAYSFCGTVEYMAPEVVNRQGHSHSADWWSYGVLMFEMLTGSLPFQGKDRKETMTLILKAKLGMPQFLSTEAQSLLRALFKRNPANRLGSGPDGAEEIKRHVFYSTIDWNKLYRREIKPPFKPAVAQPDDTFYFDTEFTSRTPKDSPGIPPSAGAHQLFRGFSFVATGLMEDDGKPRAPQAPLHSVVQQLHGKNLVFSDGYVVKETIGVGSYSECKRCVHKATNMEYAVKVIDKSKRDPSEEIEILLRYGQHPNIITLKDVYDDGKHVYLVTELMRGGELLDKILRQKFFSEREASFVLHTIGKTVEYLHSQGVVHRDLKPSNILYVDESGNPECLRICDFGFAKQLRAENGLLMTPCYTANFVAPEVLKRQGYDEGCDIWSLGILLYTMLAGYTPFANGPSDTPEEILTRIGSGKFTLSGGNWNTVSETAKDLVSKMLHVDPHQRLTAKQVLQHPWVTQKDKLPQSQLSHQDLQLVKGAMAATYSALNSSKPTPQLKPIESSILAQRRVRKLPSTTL
Protocol: as §1

PI3K = experiment: Kinase Profiler; type: biochemical; conditions: STF-31 10 μM
Protocol: as §1

IRAK1 = target: T25, IRAK1 (Homo sapiens, UniProt P51617); experiment: Kinase Profiler; type: biochemical; conditions: STF-31 10 μM
T25 construct: purchased Millipore Kinase Profiler
T25 sequence (P51617 whole entry, species assumed): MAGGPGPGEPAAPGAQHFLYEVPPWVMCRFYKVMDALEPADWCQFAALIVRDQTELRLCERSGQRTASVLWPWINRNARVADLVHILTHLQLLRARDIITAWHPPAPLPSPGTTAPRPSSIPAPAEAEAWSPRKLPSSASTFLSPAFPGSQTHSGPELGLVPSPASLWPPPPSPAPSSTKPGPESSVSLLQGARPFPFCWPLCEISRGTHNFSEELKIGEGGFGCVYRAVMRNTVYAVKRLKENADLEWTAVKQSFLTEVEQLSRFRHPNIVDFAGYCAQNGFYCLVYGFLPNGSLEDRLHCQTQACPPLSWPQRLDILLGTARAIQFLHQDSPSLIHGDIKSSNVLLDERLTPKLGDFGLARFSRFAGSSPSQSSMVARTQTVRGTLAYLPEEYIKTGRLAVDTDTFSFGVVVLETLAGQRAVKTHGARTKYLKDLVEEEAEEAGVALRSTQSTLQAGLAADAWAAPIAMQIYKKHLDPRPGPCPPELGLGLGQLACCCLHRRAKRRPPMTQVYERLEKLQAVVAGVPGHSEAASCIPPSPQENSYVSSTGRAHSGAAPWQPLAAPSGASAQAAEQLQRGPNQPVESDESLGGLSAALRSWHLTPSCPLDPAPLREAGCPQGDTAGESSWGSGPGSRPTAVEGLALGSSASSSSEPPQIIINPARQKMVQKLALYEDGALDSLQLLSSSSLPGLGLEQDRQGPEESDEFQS
Protocol: as §1

Syk = target: T26, Syk (Homo sapiens, UniProt P43405); experiment: Kinase Profiler; type: biochemical; conditions: STF-31 10 μM
T26 construct: purchased Millipore (Kinase Profiler service)
Protocol: as §1

Tie2 = target: T27, Tie2 (Homo sapiens, UniProt Q02763); experiment: Kinase Profiler; type: biochemical; conditions: STF-31 10 μM
T27 construct: purchased Millipore (Kinase Profiler service)
Protocol: as §1

CC(C)(C)c1ccc(S(=O)(=O)NCc2ccc(C(=O)Nc3cccnc3)cc2)cc1 [STF-31]
3-series sensitivity (sensitivity to STF-31) (ACHN): No | 3-series sensitivity (sensitivity to STF-31) (UMRC6): No | morphologic or biochemical features of autophagy (vacuoles, LC3 processing) (LC3): did not induce | inhibition of lactate production (RCC4 cells): about 60% | 3-series sensitivity (sensitivity to STF-31) (786-0): Yes | 3-series sensitivity (sensitivity to STF-31) (786/VHL): Yes | Kinase response to STF-31 (Abl): 108 | Kinase response to STF-31 (ASK1): 129 | Kinase response to STF-31 (MEK1): 99 | Kinase response to STF-31 (PKA): 96 | Kinase response to STF-31 (cSRC): 104 | Kinase response to STF-31 (JAK2): 113 | Kinase response to STF-31 (Flt3): 111 | Kinase response to STF-31 (SAPK2a): 127 | Kinase response to STF-31 (cKit(D816H)): 99 | Kinase response to STF-31 (IKKα): 102 | Kinase response to STF-31 (CaMKI): 87 | Kinase response to STF-31 (MKK4): 128 | Kinase response to STF-31 (AMPK): 92 | Kinase response to STF-31 (GSK3α): 134 | Kinase response to STF-31 (Axl): 87 | Kinase response to STF-31 (Aurora-A): 108 | Kinase response to STF-31 (FGFR1): 107 | Kinase response to STF-31 (MAPKAP-K2): 87 | Kinase response to STF-31 (Plk3): 104 | Kinase response to STF-31 (EphA1): 102 | Kinase response to STF-31 (NEK2): 103 | Kinase response to STF-31 (IR): 121 | Kinase response to STF-31 (PKBα): 99 | Kinase response to STF-31 (PKCδ): 116 | Kinase response to STF-31 (Rsk1): 120 | Kinase response to STF-31 (PI3K): 97 | Kinase response to STF-31 (IRAK1): 105 | Kinase response to STF-31 (Syk): 94 | Kinase response to STF-31 (Tie2): 111
